Measurements taken from publication PMC4748848, “Pharmacokinetic/Toxicity Properties of the New Anti-Staphylococcal Lead Compound SK-03-92” (Antibiotics, 2015).
Converted amounts (≈) assume the structure as drawn. “And” between values parts separate entries of the source, which are not always exact repeats. Identical values can stand only once. “Also recorded” adds a separate entry of the source. Like-named read-outs stand apart in the source and are kept apart here.

Assays:
[1] = Solubility in vehicles by HPLC; type: physicochemical; conditions: for solubility: HPLC
Method: An HPLC method was developed on a Halo C18 4.6 × […], 2.7 μm column (MAC-MOD Analytical Inc., Chadds Ford, PA, USA) for the detection and quantitation of SK-03-92. The method was developed using the information obtained from a scouting gradient of 5%–100% acetonitrile over 35 min. A UV spectrum of SK-03-92 was obtained from the scouting gradient and the observed maximum for SK-03-92 was 335 nm, with a local maximum of 224 nm also observed. The 335 nm maximum wavelength was used for the quantitation of SK-03-92, and the 224 nm local maximum wavelength was used to monitor for possible formation of degradation products not visible at the 335 nm wavelength. Flow rate was 0.750 mL/min and injection volume was 10 μL. The mobile phase was 62% acetonitrile (Fisher, Hanover Park, IL, USA):38% water (Milli-Q UV plus) and the isocratic program was 62% acetonitrile:38% water for 20 min. Acquisition time was 10 min and room temperature retention time was 5.4 min. Standards of SK-03-92 were prepared in acetonitrile at concentrations of 0.05–0.005 mg/mL.

murine monocytic J774A.1 = assay: MTT cytotoxicity assay, J774A.1; type: cell-based; conditions: Mus musculus, J774.A1; J774A.1 cells
Method: (§1) Initial in vitro safety testing of SK-03-92 was performed with an MTT [3-(4,5-dimethylthiazol-2-yl)-2,5-diphenyltetrazolium bromide] assay (9, American Type Culture Collection) for several tissue culture cell lines (murine monocytic J774A.1, human monocytic U937, human kidney epithelial 293, and human bladder epithelial T24) using mitomycin C (Sigma, St. Louis, MO, USA) and DMSO alone as positive and negative controls, respectively. Assays were done a total of three times per tissue culture cell line.

human monocytic U937 = assay: MTT cytotoxicity assay, U937; type: cell-based; conditions: U-937, U937 cells
Method: as §1

[2] = system: human kidney epithelial 293; assay: MTT cytotoxicity assay, 293; type: cell-based; conditions: cell line printed as 292
Method: as §1

[3] = system: human bladder epithelial T24; assay: MTT cytotoxicity assay, T24; type: cell-based; conditions: T-24, T24 cells
Method: as §1

[4] = system: several mammalian cell lines; assay: MTT cytotoxicity, cell lines overall and therapeutic index; type: cell-based; conditions: read-out: IC50 in vitro
Method: as §1

Swiss Webster mice = assay: Initial safety testing in mice, escalating ip dosing (OECD); type: in vivo
Method: Three female 5–9 week old Swiss Webster mice (Harlan) per drug concentration were injected intraperitoneally (ip) with increasing concentrations of SK-03-92: 5, 50, 300, and 2000 mg/kg according to OECD [10]. The lowest concentration of drug was used first. Overt toxicity (e.g., altered gait, ungroomed, significant weight loss) was monitored.

Single dose PK assay, ip = type: in vivo, BALB/c mice; conditions: mice
Method: An initial single dose PK experiment was performed using 100 μg/g of formulated SK-03-92 administered ip to twenty-one female, 5–6 week old BALB/c mice (7 per cohort for 3 cohorts, NCI) under parameters established previously. Three animals were used as a control group and received blank vehicle, whereas three mice per time point received 100 μg/g SK-03-92 ip and were sacrificed with blood collected at the 15, 30, 45, 60, 75, and 90 min time points by warming the tails of the mice in warm water, lancing the lateral saphenous tail vein, and collecting the blood (up to 150 μL) into microvette tubes (Sarstedt) containing EDTA or terminal bleed into vacucontainers containing EDTA as an anti-coagulant. Plasma was separated from packed blood cells by centrifugation (600× g) and stored at −70 °C until needed for HPLC analysis. Samples were analyzed with a Shimadzu Prominence HPLC system (Kyoto, Japan) with a Halo C18 column (MAC-MOD Analytical Inc., Chadds Ford, PA, USA). A mobile phase of 62% acetonitrile/38% water, isocratic program of 62% acetonitrile for 20 min, and flow rate of 0.75 mL/min with an injection volume of 10 μL and a retention time of 5.4 min were used. The standard curve for SK-03-92 was linear from 0.0098 to 2.5 μg/mL in plasma. Each chromatogram was collected and integrated to estimate the peak area of analyte by EZ Chrom® software (version.1.0, Agilent Technologies Inc., Santa Clara, CA, USA). The ratio of peak area of SK-03-92 was calculated to estimate the drug concentration(s) using a pre-built calibration curve. Major pharmacokinetic parameters were calculated using the noncompartmental analysis module of WinNonlin® (version 5.1, Pharsight Corp., Princeton, NJ, USA) under sparsely sampling mode.

[5] = Relative bioavailability / single dose PK, oral; type: in vivo, BALB/c mice; conditions: mice
[6] = Five-day multi-dose oral PK study; type: in vivo; conditions: female, BALB/c, mouse, plasma, mice, five-day oral 100 μg/g each day
Method: (§2) First, a five-day PK study with SK-03-92 orally administered to female 5-6 week old BALB/c mice was conducted. Three mice received 300 μL of blank vehicle by oral administration. Doses of 100 μg/g SK-03-92 were given orally each day in the vehicle. Blood was collected from three mice at time points 15, 30, 45, 60, 75, and 90 min after administration. Body weight was monitored every day before SK-03-92 administration. Plasma was prepared and stored at −70 °C until analyzed by HPLC. In an extension of this PK study to two-weeks following oral administration of SK-03-92, six mice were dosed in the test (SK-03-92) arm and six vehicle control mice in the other arm. Lastly, a multi-dosing PK analysis was done using two 51-μg/g doses of SK-03-92 per day (given four hours apart) over the course of three days in five mice.

[7] = Two-week multi-dose oral PK study; type: in vivo
Method: as §2

[8] = Multi-dosing PK, two doses per day for three days; type: in vivo; conditions: mice
Method: as §2

plasma proteins = assay: Plasma protein binding assay; type: in vitro ADME, mice; conditions: mouse plasma; read-out: bound to plasma proteins (converted)
Method: Plasma collected from EDTA treated blood from six SK-03-92 dosed mice was added to methyl tert-butyl ether (MTBE) to precipitate the proteins. The precipitated proteins were separated from the remainder of the plasma by centrifugation (14,000× g for 20 min) through a Microcon 10K filter (Millipore) and dried under a stream of nitrogen gas. The dried product was suspended in 62% acetonitrile/38% ddH2O and the AUC was quantified and correlated with the initial concentration of SK-03-92 present in the plasma.

[9] = system: S. aureus (including MRSA and VISA strains); parameters: method as in PMID 21739106; conditions: cited from earlier work
mice, rats, and humans = conditions: cited from earlier work
[10] = cited from earlier work

COc1cc(O)cc(/C=C/c2cc3ccccc3s2)c1 [SK-03-92, (E)-3-(2-(benzo[b]thiophen-2-yl)vinyl)-5-methoxyphenol]
solubility with Solutol HS 15/PBS solution ([1]; Solutol HS 15/PBS solution): less than 10% | solubility ([1]; aqueous buffer, PBS, read-out: Solubility in PBS): < 0.1 µg/mL | solubility ([1]; aqueous with cosolvent or surfactant or cyclodextrin, 20% Solutol HS 15/80% PBS, read-out: Solubility in 20% Solutol HS 15/80% PBS): 4600 µg/mL (≈ 16300 µM) | solubility ([1]; organic solvent or mixture, PEG 400, read-out: Solubility in PEG 400): 9200 µg/mL (≈ 32600 µM) | IC50 (murine monocytic J774A.1): 125 µg/mL (≈ 443 µM) | IC50 (human monocytic U937): 125 µg/mL (≈ 443 µM) | IC50 [2]: 125 µg/mL (≈ 443 µM) | IC50 [3]: 125 µg/mL (≈ 443 µM) | IC50 [4]: 125 µg/mL (≈ 443 µM) | adverse effects / overt toxicity after single dose (Swiss Webster mice; 2000 mg/kg IP single dose, two-week time frame, 2000 mg/kg): non-toxic; also recorded: did not exhibit gross toxicity | overt toxicity after repeat dose (Swiss Webster mice; repeat dose of 2000 mg/kg a week after initial 2000 mg/kg): no overt toxicity was observed | concentration at 30 min (Single dose PK assay, ip; female, BALB/c, mouse, plasma, 100 μg/g, 30 min after ip injection): 1640 ng/mL | concentration at 90 min (Single dose PK assay, ip; female, BALB/c, mouse, plasma, 100 μg/g, within 90 min of ip injection): 149 ng/mL | half-life (Single dose PK assay, ip; female, BALB/c, mouse, plasma, intraperitoneal, oral, 100 μg/g, single dose 100 μg/g, route not given, read-out: drug half-life): 20 to 30 min | half-life (Single dose PK assay, ip; female, BALB/c, mouse, plasma, ip, 100 μg/g, ip, single dose 100 μg/g, read-out: Half-Life): 22 min | Tmax (Single dose PK assay, ip; female, BALB/c, mouse, plasma, ip, single dose 100 μg/g): 30 min | AUC(0-inf) (Single dose PK assay, ip; female, BALB/c, mouse, plasma, ip, single dose 100 μg/g, read-out: AUCINF_obs (converted)): 1170 ng·h/mL | Cmax (Single dose PK assay, ip; female, BALB/c, mouse, ip, single dose 100 μg/g, plasma): 1640 ± 590 ng/mL | time to breakdown into metabolic byproducts (Single dose PK assay, ip; after ip or oral delivery): ≤ 15 min | Cl_F_obs (Single dose PK assay, ip; ip, single dose 100 μg/g): 1.46 mL/min/g and 1.46 ± 0.26 mL/min/g | Vz_F_obs (Single dose PK assay, ip; ip, single dose 100 μg/g): 47.71 mL/g and 47.71 ± 33.25 mL/g | half-life (Single dose PK assay, ip; ip, single dose 100 μg/g): 22.46 ± 17.81 min | overt toxicity (Single dose PK assay, ip; single dose 100 μg/g ip): no overt toxicity | time at which peak plasma concentration was achieved (Single dose PK assay, ip; single dose 100 μg/g, route not given): 20 to 30 min | half-life ([5]; female, BALB/c, mouse, plasma, po, 100 μg/g, oral, single dose 100 μg/g, read-out: Half-Life): 30 min | Tmax ([5]; female, BALB/c, mouse, plasma, po, 100 μg/g, oral, single dose 100 μg/g, read-out: Tmax (converted)): 22 min | concentration at 15 min ([5]; female, BALB/c, mouse, plasma, 100 μg/g oral, after 15 min, read-out: level detected in mouse plasma): 740 ng/g | concentration at 30 min ([5]; female, BALB/c, mouse, plasma, 100 μg/g oral, by 30 min, read-out: level detected in mouse plasma): 126 ng/g | AUC(0-inf) ([5]; female, BALB/c, mouse, plasma, oral, single dose 100 μg/g, read-out: AUCINF_obs (converted)): 85.7 ng·h/mL | Cmax ([5]; female, BALB/c, mouse, po, 100 μg/g, orally administered, plasma): 370 ng/mL | toxicity signs ([5]; 100 μg/g oral): no toxicity signs were observed | plasma concentrations ([5]; 75 min after oral gavage): negligible levels | oral Cmax relative to Cmax of ip-administered drug ([5]; oral vs ip): approximately 25% | Cl_F_obs ([5]; oral, single dose 100 μg/g): 21.00 ± 6.71 mL/min/g | Tmax ([5]; oral, single dose 100 μg/g): 21.43 ± 11.80 min | Vz_F_obs ([5]; oral, single dose 100 μg/g): 810.67 ± 173.87 mL/g | half-life ([5]; oral, single dose 100 μg/g): 30.40 ± 17.81 min | concentration at 15 min ([6]; after 15 min): 86 ng/mL | concentration at 75 min ([6]; after 75 min): 27 ng/mL | concentration at 15 min ([7]; BALB/c, mouse, plasma, 100 μg/g, mice, two-week oral administration, after 15 min): 144 ng/mL | concentration at 75 min ([7]; BALB/c, mouse, plasma, 100 μg/g, mice, two-week oral administration, after 75 min): 10 ng/mL | weight loss of treated mice ([7]; multi-dose oral, after two-days): about 1.5% | weight increase of treated mice ([7]; multi-dose oral, day 9): 5.16% | weight increase of treated mice ([7]; multi-dose oral, day 12): 9.75% | gross adverse effects ([8]; multi-dose analysis): no gross adverse effects | maximum plasma concentration ([8]; two 51-μg/g doses per day four hours apart for three days): 2.12 µg/mL | fraction unbound (plasma proteins): 0.156 | MIC50 [9]: 1 µg/mL (≈ 3.54 µM) | MIC90 [9]: 2 µg/mL (≈ 7.08 µM)

COc1cc(/C=C/c2ccc(O)cc2)cc(OC)c1 [pterostilbene]
toxicity at high doses (mice, rats, and humans; mice, rats, and humans): non-toxic | half-lives in animal plasma ([10]; animal plasma): 120 min | plasma concentrations ([10]; animals): < 8000 ng/mL

Oc1ccc(/C=C/c2cc(O)cc(O)c2)cc1 [resveratrol]
toxicity at high doses (mice, rats, and humans; in vivo): non-toxic | half-lives in animal plasma ([10]; in vivo): 15 to 60 min
